What was measured:
Assay type in all cases: cell-based, human
[1] = tested on: TGase activity (tTGase and Factor XIIIa) in meniscal cells; assay: TGase activity in cultured knee meniscal cells (BP incorporation into N,N-dimethylcasein); conditions: monolayer culture, 48-72 hrs; IL-1β, TGFβ, TNFα 10 ng/ml; Noc-12 2.5-25 μM; Sin-1 1-10 μM
Method: Meniscal cells were maintained in DMEM high glucose and supplemented with 10% FCS, 1% L-glutamine, 100 units/ml Penicillin and 50 μg/ml Streptomycin (Omega Scientific, Tarzana, Calif.) and cultured at 37° C. with 5% CO2. In monolayer cell culture studies involving stimulation by TGFE[…] or IL-1, the cells were placed in DMEM high glucose containing 1% FCS, 1% L-glutamine, 100 units/ml Penicillin and 50 μg/ml Streptomycin. In all other studies, the cells were cultured in complete medium (as described above). Only primary or first passage meniscal cells were studied.
(§1) TGase activity was measured by modifications to a previously described method (35). Specifically, we coated 96 well ImmunoModule plates (Nunc, Rochester, N.Y.) with 200 μl of 20 mg/ml N,N-dimethylcasein for 1 hr at 23° C. The N,N-dimethylcasein was removed and nonspecific protein binding was blocked by adding 3% BSA in 100 mM Tris, pH 8.5, 150 mM NaCl, 0.05% Tween-20 (TBST) to each well for an additional 1 hr at 23° C. Then, aliquots of 5 μg of total cellular protein from meniscal or TC28 cells that had been lysed and sonicated (in 5 mM Tris HCl, 0.25 M sucrose, 0.2 mM MgSO4, 2 mM DTT, 0.4 mM PMSF, 0.4% Triton X100, pH 7.5), were added to the plate in triplicate. To measure TGase in extracts of whole menisci, 50 mg dry weight of tissue from the central zone of each medial meniscus was used as the source (after solubilization and sonication) for aliquots of 5 μg of soluble protein. Fifty μl of solution A (100 mM Tris, pH 8.5 and 20 mM CaCl2) was added to all samples for TGase assay, followed by the addition of 50 μl of solution B (100 mM Tris, pH 8.5, 40 mM DTT and freshly added 2 mM 5-(Biotinamido) pentylamine (BP)). The plates were incubated for 1 hr at 37° C. The wells were washed once with TBST containing 1 mM EDTA and then three times with TBST. One hundred μl of a 1:500 dilution of streptavidin-AP in 3% BSA/TBST was added to each well for 1 hr at 23° C. The wells were washed twice with TBST, and 200 μl of solution C (100 mM Tris, pH 9.8, mM NaCl, 5 mM MgCl2, 1 mg/ml of freshly added p-nitrophenylphosphate) was added to each well. Readings at OD410 were taken over 15 minutes. Purified guinea pig liver TGase (Sigma) was used to prepare a standard curve. TGase activity was designated as the amount of BP incorporated into casein (per μg cellular DNA, determined chromogenically following precipitation in perchlorate (28), or, where indicated, per μg protein, determined as previously described (28)).
To directly induce expression of each TGase in meniscal cells, 5×10^5 primary cells were plated in 60 mm dishes and allowed to adhere overnight. We modified (28) the manufacturer's protocol for the Lipofectamine Plus kit (Life Technologies, Grand Island, N.Y.). To optimize the transfection of meniscal cells, we added 2.0 ml of serum-free DMEM/F12 containing 0.00015% digitonin to washed cells and incubated for 3 min at 23° C. Then, media was removed, and cells transfected at 37° C. for 7 hrs, followed by removal of the media and addition of complete DMEM high glucose medium. Transfection of each TGase into TC28 cells was done by the same procedure, with the exception that the digitonin permeabilization step was omitted.

[2] = tested on: TGase activity in knee meniscal cells and TC28 cells; assay: TGase activity in nonadherent nodule-forming culture on polyHEME; conditions: polyHEME plates, β-glycerophosphate, ascorbate, dexamethasone, up to 10 days; cytokines 10 ng/ml or TGase transfection
Method: FIG. 10 refers to effects of direct Factor XIIIa and tTGase expression on TGase activity in meniscal cells and TC28 cells. Human chondrocytic TC28 cells or normal knee meniscal cells (5×10^5), were plated in 60 mm dishes and allowed to adhere overnight, as described in the Methods. Two μg of plasmid DNAs or empty plasmid vector were then transfected, performed as described above. After 24 hrs, the cells were removed from the dishes and plated on polyHEME-coated tissue culture plates and media supplemented with 10 mM P-glycerophosphate, ascorbatte (50 μg/ml) and dexamethasone (10^−8 M), which stimulated the cells to form mineralizing nodules for 3-10 days in culture. For comparison purposes, cells were treated only with IL-1 or TGFβ (10 ng/ml each) for up to 10 days. At each time point designated, the cell nodules were collected and lysed, and TGase activity then determined as previously described. For meniscal cells, data pooled from 6 donors studied in triplicate. For TC28 cells, n=6 each, studied in triplicate. Statistics not indicated on this graph, but p<0.05 for the increases in TGase activities in response to both Factor XIIIa and tTGase transfection, and for IL-1 treatment, at all time points.
as §1, with “One hundred μl of a 1:500 dilution of streptavidin-AP in 3% BSA/TBST was added to each well for 1 hr at 23° C. The wells were washed twice with TBST, and 200 μl of solution C (100 mM Tris, pH 9.8, mM NaCl, 5 mM MgCl2, 1 mg/ml of freshly added p-nitrophenylphosphate) was added to each well.” left out, “Purified guinea pig liver TGase (Sigma) was used to prepare a standard curve.” left out, “(28)). […]” for “(28)).”

[3] = tested on: alkaline phosphatase (AP); assay: AP activity of cultured meniscal cells; conditions: 48 h, 10 ng/ml
Method: Meniscal cells (from the same donors used in FIG. 3 above) were released from the matrix with collagenase digestion, and grown in monolayer culture for 72 hrs, then trypsinized and plated in 35 mm dishes (containing 3×10^5 cells) and allowed to adhere overnight. Cells were then treated for 48 h with 10 ng/ml of TGFβ or IL-1β (10 ng/ml) in 1% FCS-containing DMEM high glucose medium. The cells were collected and lysed for the TGase (FIG. 5A), NTPPPH (FIG. 5B), and AP (FIG. 5C) assays as described in the Methods. Five micrograms of soluble protein was studied in triplicate for each assay performed as previously described. Results were analyzed by linear regression, with results indicated.
PPi was determined by differential adsorption on activated charcoal of UDP-D-[6-^3H] glucose (Amersham, Chicago, Ill.) from the reaction product 6-phospho [6-^3H] gluconate (28). Units of NTPPPH and AP were designated as micromoles of substrate hydrolyzed per hour (per μg DNA in each sample) (28). NO release by cultured meniscal cells was measured using the Greiss reaction (33). Concentrations or specific activities of PPi, NTPPPH, and AP were equalized for cellular DNA concentrations in each well.

IL-1β: Human recombinant IL-1β purchased from R&D Systems
Induction of TGase activity in cultured normal knee meniscal cells [1]: induced increased TGase activity in a donor age-dependent manner | TGase activity under mineralizing nonadherent conditions [2]: induced significant increases in TGase activity | AP activity [3]: did not significantly change

— patent publication US20040109845A1, “Method for inhibiting articular cartilage matrix calcification” (priority 2001, published 2004)
